Laboratory results: paper PMC9847679, “The anti-breast cancer stem cell properties of gold(I)-non-steroidal anti-inflammatory drug complexes” (Chemical Science, 2022)

Legend:
[1] = system: HMLER-shEcad cells; experiment: Intracellular ROS assay (DCFH-DA, flow cytometry); assay type: cell-based, human; conditions: 0.4 μM
Description: (§1) media. The final concentration of DMSO in each well was ≤1 %. After 72 h, 20 μl of MTT (4 mg mL-1 in PBS) was added to each well and the plates incubated for an additional 4 h at 37 °C. The media/MTT mixture was eliminated and DMSO (100 μl per well) was added to dissolve the formazan precipitates. The optical density was measured at 550 nm using a 96-well multiscanner autoreader. Absorbance values were normalised to (DMSO-containing) control wells and plotted as concentration of test compound versus % cell viability. IC50 values were interpolated from the resulting dose dependent curves. The reported IC50 values are the average of three independent experiments (n = 18).
(§2) Tumorsphere Formation and Viability Assay. […] Mammospheres treated with 1-3, 5-fluorouracil, capecitabine, cisplatin, carboplatin, and salinomycin (at their respective IC20 values, 5 days) were counted and imaged using an inverted microscope. The viability of the mammospheres was determined by addition of a resazurin-based reagent, TOX8 (Sigma). After incubation for 16 h, the fluorescence of the solutions was read at 590 nm (λex = 560 nm). […] Fluorescence values were normalised to DMSO-containing controls and plotted as concentration of test compound versus % mammospheres viability. […]
(§3) Cellular Uptake. […] The number of cells was counted at this stage, using a haemocytometer. […] Gold levels are expressed as mass of Au (ng) per million cells. […]

[2] = system: murine 4T1 triple-negative breast cancer model; experiment: Antitumour efficacy in murine 4T1 triple-negative breast cancer model; assay type: in vivo, BALB/c mice
Description: Mice. Female, 5-week-old BALB/c mice were purchased from Charles River Laboratories (Wilmington, MA). All mice were quarantined for one week before use and kept in micro - isolator cages (four mice per cage) in a temperature - and humidity-controlled environment a s per the Division of Laboratory Animal Research (DLAR) of University of Kentucky. All mice were maintained in a pathogen-free environment under the care of DLAR of University of Kentucky. Our study was performed in compliance with the NIH guidelines (NIH Publication No. 85-23 Rev. 1985) for the care and use of laboratory animals and all experimental procedures were monitored and approved by the Institutional Animal Care and Use Committee (IACUC) of University of Kentucky (USA).
In vivo studies with 1. Ten female BALB/c mice (5 weeks) were received from Charles River Laboratories (Wilmington, MA). […]
being implanted with 4T1 cells (1 million) subcutaneously on their right flank. Three days post-implantation, the mice were administered with 10 mg/kg of 1 intraperitoneally (IP), 0.1 mL/mouse formulated as 1% DMSO, 10% Kolliphor, and 89% PBS. The control group was injected with a PBS solution containing 1% DMSO and […]. The injection of 1, and […]
tumour-size and body-weight measurements were performed three days a week, and the mice were euthanised after 16 days (n = 5 for 1 and n = 5 for vehicle control). […]
Hematoxylin and eosin staining. The mice used in the in vivo comparative experiment of 1 and the vehicle control were sacrificed at day 16 post tumo ur cells (4T1) injection. The tissues (liver, kidney, and tumour) were fixed in freshly prepared paraformaldehyde (4% in PBS) for 24 h and processed for paraffin sectioning. Tissue sections of 5 µm were stained with hematoxylin and eosin and used for histological examination. A total of 3 sections per tissue (spanning the full depth of the tissue) were examined and photographed using a Nikon

[3] = system: HMLER-shEcad cells; experiment: Mammosphere formation assay; assay type: cell-based, human; conditions: at IC20 value, single cell suspensions, 5 days incubation
Description: as §1, §2, §3

[4] = 10 mg kg−1 intraperitoneally three times a week, 16 days, vs vehicle
[5] = day 16, compared to control group

## COc1ccc2c(c1)c(CC(=O)[O][Au][PH](c1ccccc1)(c1ccccc1)c1ccccc1)c(C)n2C(=O)c1ccc(Cl)cc1 [complex 1]
[1]; 6 h exposure (peak)
  increase in intracellular ROS levels: 104%
[1]; prolonged (16–24 h) exposure
  increase in intracellular ROS levels: statistically insignificant increases in ROS levels
[2]; [4]
  body weight: maintained their body weight
  tumour growth: significant tumour growth inhibition
[2]; [5]
  cellularity in kidney or liver tissue (H&E histology): no alteration to cellularity
  cellularity in tumour tissue (H&E histology): Reduced cellularity
[3]
  number and size of mammospheres formed: greatest inhibitory effect
